The source of these data is paper PMC10281575, “PfCRT mutations conferring piperaquine resistance in falciparum malaria shape the kinetics of quinoline drug binding and transport” (PLOS Pathogens, 2023).

Several values for one entry are separate records, joined by “and”; a condition that tells them apart may be missing. Identical values can stand only once.

The test has as its target T1, PfCRT^Dd2_G353V (Plasmodium falciparum, UniProt Q8IBZ9, A220S/G353V/I356T/K76T/M74I/N326S/N75E/Q271E/R371I).
T1 construct: expressed in transfected cells; host or cells: Xenopus laevis oocytes injected with in vitro transcribed RNA (pSP64T)
T1 sequence (Q8IBZ9 1-424 M74I/N75E/K76T/A220S/Q271E/N326S/G353V/I356T/R371I): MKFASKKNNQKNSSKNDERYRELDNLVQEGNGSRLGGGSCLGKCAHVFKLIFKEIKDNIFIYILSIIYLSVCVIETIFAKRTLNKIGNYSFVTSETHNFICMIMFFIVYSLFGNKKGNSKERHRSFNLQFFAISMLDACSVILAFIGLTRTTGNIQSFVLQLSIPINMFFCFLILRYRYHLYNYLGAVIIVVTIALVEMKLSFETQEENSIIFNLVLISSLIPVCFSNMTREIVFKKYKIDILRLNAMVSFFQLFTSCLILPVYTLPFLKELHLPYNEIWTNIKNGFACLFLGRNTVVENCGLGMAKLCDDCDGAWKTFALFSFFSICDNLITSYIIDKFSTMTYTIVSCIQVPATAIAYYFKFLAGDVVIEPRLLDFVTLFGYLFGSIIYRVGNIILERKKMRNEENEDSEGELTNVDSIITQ
Put plainly: Verapamil inhibition of PfCRT-mediated CQ and PPQ transport in oocytes, PfCRT^Dd2_G353V. Format: cell-based. The conditions noted are these: individual replicates (S3 Fig). The method, then:
In all cases, the PfCRT-mediated CQ and PPQ transport was inhibited in the presence of 100 μM verapamil (S3 Fig).
Drug transport assays were performed as previously described. Briefly, measurements of radiolabeled drug uptake were made over 1 h, unless otherwise specified. […] Where specified, one or more unlabeled drugs were also present at the indicated concentrations. The direction of drug transport in the assays is from the extracellular medium (pH 6) into the oocyte cytosol (pH 7.2), which corresponds to the efflux of CQ or PPQ from the acidic digestive vacuole (pH 5.2) into the parasite cytosol (pH 7.2). The uptake assays were terminated by removing the oocytes from the reaction medium and washing them three times with 2 mL of ice-cold ND96 buffer. Each oocyte was transferred to a separate scintillation vial and lysed by the addition of 200 μL of a 5% SDS solution. The radioactivity in the sample was measured using a liquid scintillation analyser Tri-Carb 4910 TR (PerkinElmer). Water-injected oocytes were analyzed in parallel as a negative control. The buffer from each condition was measured in duplicate in parallel to each experiment to transform counts per minute into pmol of drug. Drug uptake attributable to PfCRT was determined by subtracting the background uptake from water-injected oocytes from that of PfCRT-expressing oocytes. In all cases, at least three independent experiments were performed on oocytes from different frogs, and for each condition in an experiment, measurements were made from 10 oocytes per treatment.
Supplementary file ppat.1011436.s006.tif: S3 Fig Verapamil inhibits PfCRT-mediated transport of CQ and PPQ. […] Left panels, data is shown as individual biological replicates (coloured symbols) overlaid onto bars representing the Mean ± S.E.M. (error bars). A one-tailed Student’s t-test was performed between untreated (no VP) and treated (+ 100 μM VP) samples, and the obtained p values are shown. Right panels, the uptake in VP-treated samples was divided by the uptake in their corresponding untreated pairs and subtracted from 100% to get the percentage of uptake inhibition mediated by the presence of 100 μM verapamil in the extracellular medium. Error bars are S.E. (TIF) Click here for additional data file.

With `CCN(CC)CCCC(C)Nc1ccnc2cc(Cl)ccc12` (stereo not shown) [CQ, chloroquine], the “PfCRTDd2_G353V-mediated CQ transport” value (50 µM CQ + 100 µM VP) is 3.530 pmol oocyte-1 h-1 and 3.520 pmol oocyte-1 h-1 and 2.870 pmol oocyte-1 h-1 and 2.520 pmol oocyte-1 h-1 and 3.380 pmol oocyte-1 h-1; the “PfCRTDd2_G353V-mediated CQ transport” value (50 µM CQ) was 4.740 pmol oocyte-1 h-1 and 5.010 pmol oocyte-1 h-1 and 2.880 pmol oocyte-1 h-1 and 3.920 pmol oocyte-1 h-1 and 4.760 pmol oocyte-1 h-1.

With `Clc1ccc2c(N3CCN(CCCN4CCN(c5ccnc6cc(Cl)ccc56)CC4)CC3)ccnc2c1` [PPQ, piperaquine], the “PfCRTDd2_G353V-mediated PPQ transport” value was 18.21 pmol oocyte-1 h-1 and 25.90 pmol oocyte-1 h-1 and 37.78 pmol oocyte-1 h-1 and 29.33 pmol oocyte-1 h-1 and 30.34 pmol oocyte-1 h-1 (50 µM PPQ + 100 µM VP); 29.38 pmol oocyte-1 h-1 and 45.38 pmol oocyte-1 h-1 and 21.36 pmol oocyte-1 h-1 and 40.00 pmol oocyte-1 h-1 and 56.34 pmol oocyte-1 h-1 and 56.46 pmol oocyte-1 h-1 and 95.52 pmol oocyte-1 h-1 and 62.83 pmol oocyte-1 h-1 (50 µM PPQ).
